Laboratory results: patent US20090298820A1, “3-SUBSTITUTED-1H-PYRROLO[2,3-B]PYRIDINE AND 3-SUBSTITUTED-1H-PYRROLO[3,2-B]PYRIDINE COMPOUNDS, THEIR USE AS MTOR KINASE AND PI3 KINASE INHIBITORS, AND THEIR SYNTHESES” (Wyeth, priority 2008, published 2009)
Like-named read-outs stand apart in the source and are kept apart here.

Tests used:
Assay type in all cases: biochemical
[1] = biological target: PI3Kα (Homo sapiens, UniProt P42336); assay: PI3K-alpha fluorescence polarization assay; conditions: read-out: PI3Kα Median IC50
[2] = biological target: PI3Kγ (Homo sapiens, UniProt P48736); assay: PI3K-gamma fluorescence polarization assay; conditions: read-out: PI3Kγ Median IC50
[3] = biological target: mTOR (Homo sapiens, UniProt P42345); assay: mTOR enzyme assay (DELFIA format, His6-S6K substrate)
[4] = read-out: mTOR Kinase Median IC50

Sequence of PI3Kα (P42336 whole entry, species assumed): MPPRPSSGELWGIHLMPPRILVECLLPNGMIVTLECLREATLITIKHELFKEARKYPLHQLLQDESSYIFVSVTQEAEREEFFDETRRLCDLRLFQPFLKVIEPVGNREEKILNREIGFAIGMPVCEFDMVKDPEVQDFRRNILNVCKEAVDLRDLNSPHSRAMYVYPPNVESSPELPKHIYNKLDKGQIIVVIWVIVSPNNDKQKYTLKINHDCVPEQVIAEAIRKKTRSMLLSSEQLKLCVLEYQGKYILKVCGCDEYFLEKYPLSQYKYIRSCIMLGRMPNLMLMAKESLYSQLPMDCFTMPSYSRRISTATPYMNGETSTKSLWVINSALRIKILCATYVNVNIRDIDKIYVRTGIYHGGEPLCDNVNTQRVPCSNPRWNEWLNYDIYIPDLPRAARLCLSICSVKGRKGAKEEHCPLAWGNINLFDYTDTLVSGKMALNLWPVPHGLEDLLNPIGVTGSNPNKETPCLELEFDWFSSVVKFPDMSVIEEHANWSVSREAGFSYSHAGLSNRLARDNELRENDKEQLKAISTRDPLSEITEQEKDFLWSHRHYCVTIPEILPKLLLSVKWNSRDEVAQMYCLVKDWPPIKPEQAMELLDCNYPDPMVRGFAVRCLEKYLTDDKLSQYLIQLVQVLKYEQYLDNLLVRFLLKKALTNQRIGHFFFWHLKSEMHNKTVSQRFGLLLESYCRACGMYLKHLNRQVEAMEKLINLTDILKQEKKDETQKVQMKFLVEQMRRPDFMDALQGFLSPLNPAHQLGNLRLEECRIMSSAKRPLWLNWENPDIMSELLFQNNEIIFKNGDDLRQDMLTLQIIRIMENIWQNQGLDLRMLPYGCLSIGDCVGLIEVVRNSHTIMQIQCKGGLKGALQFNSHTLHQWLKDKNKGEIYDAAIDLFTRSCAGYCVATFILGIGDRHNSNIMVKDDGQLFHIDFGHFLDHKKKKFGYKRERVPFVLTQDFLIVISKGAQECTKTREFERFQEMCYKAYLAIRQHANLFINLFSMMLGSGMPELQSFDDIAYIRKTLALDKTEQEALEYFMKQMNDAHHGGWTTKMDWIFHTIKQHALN
Sequence of PI3Kα (P27986 whole entry partner, species assumed): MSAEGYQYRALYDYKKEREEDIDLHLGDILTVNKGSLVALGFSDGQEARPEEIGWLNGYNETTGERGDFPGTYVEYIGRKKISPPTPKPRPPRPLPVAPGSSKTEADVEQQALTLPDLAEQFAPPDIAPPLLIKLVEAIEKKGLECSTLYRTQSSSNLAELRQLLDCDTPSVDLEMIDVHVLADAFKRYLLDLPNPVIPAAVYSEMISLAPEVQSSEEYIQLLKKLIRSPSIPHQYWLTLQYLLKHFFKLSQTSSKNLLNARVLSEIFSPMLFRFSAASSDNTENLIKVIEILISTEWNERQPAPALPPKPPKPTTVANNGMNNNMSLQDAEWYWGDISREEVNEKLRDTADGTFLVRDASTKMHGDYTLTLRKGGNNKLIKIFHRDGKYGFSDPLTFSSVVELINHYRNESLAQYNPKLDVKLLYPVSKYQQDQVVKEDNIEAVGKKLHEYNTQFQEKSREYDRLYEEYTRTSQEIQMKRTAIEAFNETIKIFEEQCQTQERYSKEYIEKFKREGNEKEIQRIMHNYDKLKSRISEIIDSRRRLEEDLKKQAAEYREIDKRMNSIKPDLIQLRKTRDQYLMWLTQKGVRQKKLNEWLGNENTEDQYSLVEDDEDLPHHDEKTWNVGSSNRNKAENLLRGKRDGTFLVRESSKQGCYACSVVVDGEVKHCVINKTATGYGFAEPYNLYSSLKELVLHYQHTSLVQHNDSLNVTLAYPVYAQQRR
Sequence of PI3Kγ (P48736 whole entry, species assumed): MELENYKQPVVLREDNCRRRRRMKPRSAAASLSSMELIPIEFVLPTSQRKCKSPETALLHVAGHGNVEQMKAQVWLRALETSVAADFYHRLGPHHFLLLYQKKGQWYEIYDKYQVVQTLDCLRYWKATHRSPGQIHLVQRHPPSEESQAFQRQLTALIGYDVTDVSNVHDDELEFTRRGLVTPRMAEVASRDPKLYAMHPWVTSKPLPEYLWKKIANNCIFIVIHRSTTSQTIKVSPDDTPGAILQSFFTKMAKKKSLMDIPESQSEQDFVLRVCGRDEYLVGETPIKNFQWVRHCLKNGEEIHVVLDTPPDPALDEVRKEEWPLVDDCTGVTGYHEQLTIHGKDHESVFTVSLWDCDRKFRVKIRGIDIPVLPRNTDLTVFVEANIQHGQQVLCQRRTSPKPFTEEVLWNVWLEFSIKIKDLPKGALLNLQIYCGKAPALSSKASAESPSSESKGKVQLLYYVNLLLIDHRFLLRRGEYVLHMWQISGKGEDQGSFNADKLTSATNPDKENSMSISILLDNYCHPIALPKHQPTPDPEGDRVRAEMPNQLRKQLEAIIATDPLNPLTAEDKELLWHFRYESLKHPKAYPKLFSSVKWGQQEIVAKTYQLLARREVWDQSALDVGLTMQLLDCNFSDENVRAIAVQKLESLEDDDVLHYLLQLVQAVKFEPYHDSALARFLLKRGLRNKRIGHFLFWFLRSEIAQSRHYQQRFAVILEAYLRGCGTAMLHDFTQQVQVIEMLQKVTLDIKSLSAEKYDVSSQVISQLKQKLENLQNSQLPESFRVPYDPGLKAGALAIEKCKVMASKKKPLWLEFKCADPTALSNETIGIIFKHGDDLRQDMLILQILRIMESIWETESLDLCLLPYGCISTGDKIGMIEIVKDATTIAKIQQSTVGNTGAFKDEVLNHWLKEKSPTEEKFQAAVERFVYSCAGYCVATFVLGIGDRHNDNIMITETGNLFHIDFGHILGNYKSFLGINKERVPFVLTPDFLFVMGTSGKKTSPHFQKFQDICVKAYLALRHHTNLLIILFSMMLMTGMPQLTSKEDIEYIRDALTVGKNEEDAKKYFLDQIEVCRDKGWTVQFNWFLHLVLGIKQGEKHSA

| SMILES | IC50 [1] [nM] | IC50 [2] [nM] | IC50 [3, 4] [nM] | IC50 [3] [nM] |
| --- | --- | --- | --- | --- |
| Cn1cc(/C=C2\Oc3cccc(O)c3C2=O)c2c(-c3ccc(S(C)(=O)=O)cc3)ccnc21 [Compound 73, (2Z)-4-hydroxy-2-({1-methyl-4-[4-(methylsulfonyl)phenyl]-1H-pyrrolo[2,3-b]pyridin-3-yl}methylene)-1-benzofuran-3(2H)-one] | 23 | 75 | 3.1 | – |
| CNS(=O)(=O)c1ccc(-c2ccnc3c2c(/C=C2\Oc4cc(O)cc(O)c4C2=O)cn3C)cc1 [Compound 77, 4-{3-[(Z)-(4,6-dihydroxy-3-oxo-1-benzofuran-2(3H)-ylidene)methyl]-1-methyl-1H-pyrrolo[2,3-b]pyridin-4-yl}-N-methylbenzenesulfonamide] | 2 | 22 | 0.2 | – |
| Cn1cc(/C=C2\Oc3cc(O)cc(O)c3C2=O)c2c(C3=CCNCC3)ccnc21 [Compound 78, (2Z)-4,6-dihydroxy-2-{[1-methyl-4-(1,2,3,6-tetrahydropyridin-4-yl)-1H-pyrrolo[2,3-b]pyridin-3-yl]methylene}-1-benzofuran-3(2H)-one] | 31 | 315 | 5 | – |
| Cn1cc(/C=C2\Oc3cc(O)cc(O)c3C2=O)c2c(-c3cccc(C(=O)N4CCCC4)c3)ccnc21 [Compound 79, (2Z)-4,6-dihydroxy-2-({1-methyl-4-[3-(pyrrolidin-1-ylcarbonyl)phenyl]-1H-pyrrolo[2,3-b]pyridin-3-yl}methylene)-1-benzofuran-3(2H)-one] | 8 | 49 | 1.4 | – |
| Cn1cc(/C=C2\Oc3cc(O)cc(O)c3C2=O)c2c(-c3cccc(S(=O)(=O)N4CCCCC4)c3)ccnc21 [Compound 80, (2Z)-4,6-dihydroxy-2-({1-methyl-4-[3-(piperidin-1-ylsulfonyl)phenyl]-1H-pyrrolo[2,3-b]pyridin-3-yl}methylene)-1-benzofuran-3(2H)-one] | 23 | 69 | 1.8 | – |
| COc1ccc(-c2ccnc3c2c(/C=C2\Oc4cccc(O)c4C2=O)cn3C)cc1S(=O)(=O)N1CCOCC1 [Compound 81, (2Z)-4-hydroxy-2-({4-[4-methoxy-3-(morpholin-4-ylsulfonyl)phenyl]-1-methyl-1H-pyrrolo[2,3-b]pyridin-3-yl}methylene)-1-benzofuran-3(2H)-one] | 28 | 79 | 1.6 | – |
| Cn1cc(/C=C2\Oc3cccc(O)c3C2=O)c2c(-c3ccc(S(=O)(=O)NC4CC4)cc3)ccnc21 [Compound 82, N-cyclopropyl-4-{3-[(Z)-(4-hydroxy-3-oxo-1-benzofuran-2(3H)-ylidene)methyl]-1-methyl-1H-pyrrolo[2,3-b]pyridin-4-yl}benzenesulfonamide] | 20 | 70 | 1.4 | – |
| Cn1cc(/C=C2\Oc3cccc(O)c3C2=O)c2c(-c3ccc(C(=O)Nc4ccc(F)cc4)cc3)ccnc21 [Compound 83, N-(4-fluorophenyl)-4-{3-[(Z)-(4-hydroxy-3-oxo-1-benzofuran-2(3H)-ylidene)methyl]-1-methyl-1H-pyrrolo[2,3-b]pyridin-4-yl}benzamide] | 124 | 951 | 9.5 | – |
| Cn1cc(/C=C2\Oc3cccc(O)c3C2=O)c2c(-c3ccc(Oc4ccccc4)cc3)ccnc21 [Compound 84, (2Z)-4-hydroxy-2-{[1-methyl-4-(4-phenoxyphenyl)-1H-pyrrolo[2,3-b]pyridin-3-yl]methylene}-1-benzofuran-3(2H)-one] | 4880 | > 10000 | 165 | – |
| Cn1cc(/C=C2\Oc3cccc(O)c3C2=O)c2c(-c3cc4ccccc4o3)ccnc21 [Compound 85, (2Z)-2-{[4-(1-benzofuran-2-yl)-1-methyl-1H-pyrrolo[2,3-b]pyridin-3-yl]methylene}-4-hydroxy-1-benzofuran-3(2H)-one] | 273 | 157 | 26.5 | – |
| COc1ccc(-c2ccnc3c2c(/C=C2\Oc4cccc(O)c4C2=O)cn3C)cc1S(=O)(=O)N1CCCC1 [Compound 86, (2Z)-4-hydroxy-2-({4-[4-methoxy-3-(pyrrolidin-1-ylsulfonyl)phenyl]-1-methyl-1H-pyrrolo[2,3-b]pyridin-3-yl}methylene)-1-benzofuran-3(2H)-one] | 77 | 600 | 3.4 | – |
| Cn1cc(/C=C2\Oc3cc(O)cc(O)c3C2=O)c2c(-c3ccc(Oc4ccccc4)cc3)ccnc21 [Compound 87, (2Z)-4,6-dihydroxy-2-{[1-methyl-4-(4-phenoxyphenyl)-1H-pyrrolo[2,3-b]pyridin-3-yl]methylene}-1-benzofuran-3(2H)-one] | 161 | 66 | 3.6 | – |
| COc1ccc(-c2ccnc3c2c(/C=C2\Oc4cc(O)cc(O)c4C2=O)cn3C)cc1S(=O)(=O)N1CCOCC1 [Compound 88, (2Z)-4,6-dihydroxy-2-({4-[4-methoxy-3-(morpholin-4-ylsulfonyl)phenyl]-1-methyl-1H-pyrrolo[2,3-b]pyridin-3-yl}methylene)-1-benzofuran-3(2H)-one] | 8 | 27 | 0.2 | – |
| COc1ccc(-c2ccnc3c2c(/C=C2\Oc4cc(O)cc(O)c4C2=O)cn3C)cc1S(=O)(=O)N1CCCC1 [Compound 89, (2Z)-4,6-dihydroxy-2-({4-[4-methoxy-3-(pyrrolidin-1-ylsulfonyl)phenyl]-1-methyl-1H-pyrrolo[2,3-b]pyridin-3-yl}methylene)-1-benzofuran-3(2H)-one] | 8 | 50 | 0.5 | – |
| Cn1cc(/C=C2\Oc3cccc(O)c3C2=O)c2c(-c3ccc(S(=O)(=O)NCc4ccccc4)cc3)ccnc21 [Compound 90, N-benzyl-4-{3-[(Z)-(4-hydroxy-3-oxo-1-benzofuran-2(3H)-ylidene)methyl]-1-methyl-1H-pyrrolo[2,3-b]pyridin-4-yl}benzenesulfonamide] | 10 | 16 | 24 | – |
| Cn1cc(/C=C2\Oc3cccc(O)c3C2=O)c2c(-c3ccc(C(=O)N4CCCC4)cc3)ccnc21 [Compound 91, (2Z)-4-hydroxy-2-({1-methyl-4-[4-(pyrrolidin-1-ylcarbonyl)phenyl]-1H-pyrrolo[2,3-b]pyridin-3-yl}methylene)-1-benzofuran-3(2H)-one] | 36 | 74 | 0.7 | – |
| Cn1cc(/C=C2\Oc3cc(O)cc(O)c3C2=O)c2c(-c3ccc(C(=O)N4CCCC4)cc3)ccnc21 [Compound 92, (2Z)-4,6-dihydroxy-2-({1-methyl-4-[4-(pyrrolidin-1-ylcarbonyl)phenyl]-1H-pyrrolo[2,3-b]pyridin-3-yl}methylene)-1-benzofuran-3(2H)-one] | 9 | 54 | 0.2 | – |
| Cn1cc(/C=C2\Oc3cccc(O)c3C2=O)c2c(-c3cccc(C(=O)Nc4ccc(F)cc4)c3)ccnc21 [Compound 96, N-(4-fluorophenyl)-3-{3-[(Z)-(4-hydroxy-3-oxo-1-benzofuran-2(3H)-ylidene)methyl]-1-methyl-1H-pyrrolo[2,3-b]pyridin-4-yl}benzamide] | 301 | 2700 | 13 | – |
| Cn1cc(/C=C2\Oc3cc(O)cc(O)c3C2=O)c2c(-c3cccc(C(=O)Nc4ccc(F)cc4)c3)ccnc21 [Compound 97, 3-{3-[(Z)-(4,6-dihydroxy-3-oxo-1-benzofuran-2(3H)-ylidene)methyl]-1-methyl-1H-pyrrolo[2,3-b]pyridin-4-yl}-N-(4-fluorophenyl)benzamide] | 13 | 321 | 0.7 | – |
| Cn1cc(/C=C2\Oc3cc(O)cc(O)c3C2=O)c2c(-c3ccc(F)c(C(=O)Nc4ccccc4)c3)ccnc21 [Compound 98, 5-{3-[(Z)-(4,6-dihydroxy-3-oxo-1-benzofuran-2(3H)-ylidene)methyl]-1-methyl-1H-pyrrolo[2,3-b]pyridin-4-yl}-2-fluoro-N-phenylbenzamide] | 11 | 100 | 0.2 | – |
| CCn1cc(/C=C2\Oc3cccc(O)c3C2=O)c2c(-c3ccccc3)ccnc21 [Compound 116, (2Z)-2-[(1-ethyl-4-phenyl-1H-pyrrolo[2,3-b]pyridin-3-yl)methylene]-4-hydroxy-1-benzofuran-3(2H)-one] | 8490 | > 10000 | 23 | – |
| CNC(=O)Nc1ccc2c(c1)C(=O)/C(=C/c1c[nH]c3ncc(OC)cc13)O2 [Compound 119, 1-{(2Z)-2-[(5-methoxy-1H-pyrrolo[2,3-b]pyridin-3-yl)methylene]-3-oxo-2,3-dihydro-1-benzofuran-5-yl}-3-methylurea] | 46 | 183 | 72 | – |
| CNC(=O)Nc1ccc2c(c1)C(=O)/C(=C/c1cn(CCN3CCN(C)CC3)c3ncc(OC)cc13)O2 [Compound 120, 1-[(2Z)-2-({5-methoxy-1-[2-(4-methylpiperazin-1-yl)ethyl]-1H-pyrrolo[2,3-b]pyridin-3-yl}methylene)-3-oxo-2,3-dihydro-1-benzofuran-5-yl]-3-methylurea] | 35 | 2380 | – | 285 |
| COc1ccc(-c2ccnc3c2c(/C=C2\Oc4cccc(O)c4C2=O)cn3C)cc1S(=O)(=O)N1CCCCC1 [Compound 123, (2Z)-4-hydroxy-2-({4-[4-methoxy-3-(piperidin-1-ylsulfonyl)phenyl]-1-methyl-1H-pyrrolo[2,3-b]pyridin-3-yl}methylene)-1-benzofuran-3(2H)-one] | 43 | 156 | 16.5 | – |
| CN1CCN(C(=O)c2ccc(-c3ccnc4c3c(/C=C3\Oc5cccc(O)c5C3=O)cn4C)cc2)CC1 [Compound 124, (2Z)-4-hydroxy-2-[(1-methyl-4-{4-[(4-methylpiperazin-1-yl)carbonyl]phenyl}-1H-pyrrolo[2,3-b]pyridin-3-yl)methylene]-1-benzofuran-3(2H)-one] | 70 | 184 | 1 | – |
